# Results from ChEMBL document CHEMBL1201861, “Genomics of Drug Sensitity in Cancer screening data, Wellcome Trust Sanger Institute”.
# Tests used:
# Assay in all cases: cells
# Type in all cases: functional, cell-based
# Conditions in all cases: Homo sapiens
# COLO-800 = test system: COLO-800;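 note: growth inhibition of COLO-800 cells, read out with a cell viability assay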
# Description: SANGER: Inhibition of human COLO-800 cell growth in a cell viability assay.
# COR-L23 = test system: COR-L23;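 note: cell viability assay measuring how strongly compounds suppress growth of COR-L23 cells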
# Description: SANGER: Inhibition of human COR-L23 cell growth in a cell viability assay.
# CP66-MEL = test system: CP66-MEL;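 note: growth inhibition of CP66-MEL cells determined in a cell viability assay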
# Description: SANGER: Inhibition of human CP66-MEL cell growth in a cell viability assay.
# D-263MG = test system: D-263MG
# Description: SANGER: Inhibition of human D-263MG cell growth in a cell viability assay.
# DU-4475 = test system: DU-4475
# Description: SANGER: Inhibition of human DU-4475 cell growth in a cell viability assay.
# EM-2 = test system: EM-2;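 note: growth inhibition of EM-2 cells, read out with a cell viability assay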
# Description: SANGER: Inhibition of human EM-2 cell growth in a cell viability assay.
# ES4 = test system: ES4;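 note: growth inhibition of human ES4 cells, read out by a cell viability assay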
# Description: SANGER: Inhibition of human ES4 cell growth in a cell viability assay.
# ES7 = test system: ES7;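 note: growth inhibition of cultured human ES7 cells, read out as cell viability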
# Description: SANGER: Inhibition of human ES7 cell growth in a cell viability assay.
# EW-11 = test system: EW-11;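 note: growth inhibition of human EW-11 cells, measured with a cell viability assay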
# Description: SANGER: Inhibition of human EW-11 cell growth in a cell viability assay.
# EW-18 = test system: EW-18;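 note: growth inhibition of EW-18 cells, read out by a cell viability assay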
# Description: SANGER: Inhibition of human EW-18 cell growth in a cell viability assay.
# GI-ME-N = test system: GI-ME-N;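 note: growth inhibition of human GI-ME-N cells, read out with a cell viability assay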
# Description: SANGER: Inhibition of human GI-ME-N cell growth in a cell viability assay.
# GOTO = test system: GOTO;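 note: growth inhibition of GOTO cells, read out by a cell viability assay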
# Description: SANGER: Inhibition of human GOTO cell growth in a cell viability assay.
# GT3TKB = test system: GT3TKB;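 note: growth inhibition of the cell line, read out with a cell viability assay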
# Description: SANGER: Inhibition of human GT3TKB cell growth in a cell viability assay.
# HL-60 = test system: HL-60;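 note: growth inhibition of human HL-60 cells, read out with a cell viability assay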
# Description: SANGER: Inhibition of human HL-60 cell growth in a cell viability assay.
# HT = test system: HT
# Description: SANGER: Inhibition of human HT cell growth in a cell viability assay.
# IST-MEL1 = test system: IST-MEL1;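 note: growth inhibition of the cell line, read out with a cell viability assay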
# Description: SANGER: Inhibition of human IST-MEL1 cell growth in a cell viability assay.
# IST-MES1 = test system: IST-MES1;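 note: growth inhibition of IST-MES1 cells, measured with a cell viability assay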
# Description: SANGER: Inhibition of human IST-MES1 cell growth in a cell viability assay.
# K562 = test system: K562
# Description: SANGER: Inhibition of human K-562 cell growth in a cell viability assay.
# KE-37 = test system: KE-37;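 note: growth inhibition of KE-37 cells, read out with a cell viability assay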
# Description: SANGER: Inhibition of human KE-37 cell growth in a cell viability assay.
# KM-H2 = test system: KM-H2;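 note: growth inhibition of KM-H2 cells, read out by a cell viability assay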
# Description: SANGER: Inhibition of human KM-H2 cell growth in a cell viability assay.
# KNS-42 = test system: KNS-42;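 note: growth inhibition of KNS-42 cells, read out with a cell viability assay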
# Description: SANGER: Inhibition of human KNS-42 cell growth in a cell viability assay.
# KNS-81-FD = test system: KNS-81-FD;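 note: growth inhibition of KNS-81-FD cells, read out with a cell viability assay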
# Description: SANGER: Inhibition of human KNS-81-FD cell growth in a cell viability assay.
# KYSE-410 = test system: KYSE-410;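 note: growth inhibition of KYSE-410 cells, measured through a cell viability readout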
# Description: SANGER: Inhibition of human KYSE-410 cell growth in a cell viability assay.
# L-363 = test system: L-363
# Description: SANGER: Inhibition of human L-363 cell growth in a cell viability assay.
# L-540 = test system: L-540;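 note: growth inhibition of the human L-540 cell line, read out with a viability assay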
# Description: SANGER: Inhibition of human L-540 cell growth in a cell viability assay.
# LB2241-RCC = test system: LB2241-RCC;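 note: cell viability assay measuring how strongly the cultured human renal carcinoma line is prevented from growing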
# Description: SANGER: Inhibition of human LB2241-RCC cell growth in a cell viability assay.
# LB373-MEL-D = test system: LB373-MEL-D;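 note: growth inhibition of the cell line, read out in a cell viability assay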
# Description: SANGER: Inhibition of human LB373-MEL-D cell growth in a cell viability assay.
# LS-123 = test system: LS-123
# Description: SANGER: Inhibition of human LS-123 cell growth in a cell viability assay.
# MEG-01 = test system: MEG-01;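 note: growth inhibition of MEG-01 cells, read out by a cell viability assay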
# Description: SANGER: Inhibition of human MEG-01 cell growth in a cell viability assay.
# ML-2 = test system: ML-2;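 note: growth inhibition of ML-2 cells, measured with a cell viability readout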
# Description: SANGER: Inhibition of human ML-2 cell growth in a cell viability assay.
# MMAC-SF = test system: MMAC-SF;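 note: growth inhibition of human MMAC-SF cells, read out with a cell viability assay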
# Description: SANGER: Inhibition of human MMAC-SF cell growth in a cell viability assay.
# MN-60 = test system: MN-60;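 note: growth inhibition of the MN-60 cell line, determined with a cell viability assay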
# Description: SANGER: Inhibition of human MN-60 cell growth in a cell viability assay.
# NB10 = test system: NB10;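 note: growth inhibition of NB10 cells, read out by a cell viability assay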
# Description: SANGER: Inhibition of human NB10 cell growth in a cell viability assay.
# NB5 = test system: NB5;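 note: growth inhibition of NB5 cells, read out as cell viability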
# Description: SANGER: Inhibition of human NB5 cell growth in a cell viability assay.
# NCI-H1299 = test system: NCI-H1299;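 note: growth inhibition of human NCI-H1299 cells, read out by a cell viability assay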
# Description: SANGER: Inhibition of human NCI-H1299 cell growth in a cell viability assay.
# NCI-H1650 = test system: NCI-H1650;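 note: growth inhibition of human NCI-H1650 cells measured by a cell viability assay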
# Description: SANGER: Inhibition of human NCI-H1650 cell growth in a cell viability assay.
# NCI-H2170 = test system: NCI-H2170;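 note: cell viability assay measuring growth inhibition of human NCI-H2170 cancer cells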
# Description: SANGER: Inhibition of human NCI-H2170 cell growth in a cell viability assay.
# NCI-H322M = test system: NCI-H322M;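 note: cell viability assay measuring inhibition of growth of human NCI-H322M cells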
# Description: SANGER: Inhibition of human NCI-H322M cell growth in a cell viability assay.
# NCI-H446 = test system: NCI-H446;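 note: growth inhibition of NCI-H446 cells determined by a cell viability assay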
# Description: SANGER: Inhibition of human NCI-H446 cell growth in a cell viability assay.
# SNU-5 = test system: SNU-5;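 note: cell viability readout used to measure growth inhibition in human NCI-SNU-5 cells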
# Description: SANGER: Inhibition of human NCI-SNU-5 cell growth in a cell viability assay.
# NKM-1 = test system: NKM-1;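 note: growth inhibition of NKM-1 cells, read out with a cell viability assay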
# Description: SANGER: Inhibition of human NKM-1 cell growth in a cell viability assay.
# NTERA-2-cl-D1 = test system: NTERA-2-cl-D1;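 note: inhibition of cell growth, measured with a cell viability assay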
# Description: SANGER: Inhibition of human NTERA-S-cl-D1 cell growth in a cell viability assay.
# OVCAR-5 = test system: OVCAR-5;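 note: growth inhibition of human OVCAR-5 cells, read out with a cell viability assay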
# Description: SANGER: Inhibition of human OVCAR-5 cell growth in a cell viability assay.
# P12-Ichikawa = test system: P12-Ichikawa
# PSN1 = test system: PSN1;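 note: suppression of growth of human PSN1 cells, read out by a cell viability assay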
# Description: SANGER: Inhibition of human PSN1 cell growth in a cell viability assay.
# RMG-I = test system: RMG-I;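 note: growth inhibition of human RMG-I cells, read out with a cell viability assay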
# Description: SANGER: Inhibition of human RMG-I cell growth in a cell viability assay.
# RXF 393 = test system: RXF 393;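 note: growth inhibition of human RXF 393 cells, read out with a cell viability assay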
# Description: SANGER: Inhibition of human RXF393 cell growth in a cell viability assay.
# SF-268 = test system: SF-268;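 note: growth inhibition of SF-268 cells determined with a cell viability assay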
# Description: SANGER: Inhibition of human SF268 cell growth in a cell viability assay.
# SF-539 = test system: SF-539;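 note: Read-out is a cell viability assay, with IC50 reflecting inhibition of cell growth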
# Description: SANGER: Inhibition of human SF539 cell growth in a cell viability assay.
# SH-4 = test system: SH-4;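 note: growth inhibition of SH-4 cells, read out with a cell viability assay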
# Description: SANGER: Inhibition of human SH-4 cell growth in a cell viability assay.
# SJSA-1 = test system: SJSA-1;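 note: growth inhibition of human SJSA-1 cells, read out through a cell viability measurement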
# Description: SANGER: Inhibition of human SJSA-1 cell growth in a cell viability assay.
# SK-MEL-2 = test system: SK-MEL-2;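 note: growth inhibition of human SK-MEL-2 cells measured with a cell viability assay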
# Description: SANGER: Inhibition of human SK-MEL-2 cell growth in a cell viability assay.
# SK-OV-3 = test system: SK-OV-3;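 note: growth inhibition of SK-OV-3 human cells, read out with a cell viability assay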
# Description: SANGER: Inhibition of human SK-OV-3 cell growth in a cell viability assay.
# A101D = test system: A101D;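 note: growth inhibition of the cell line, measured with a viability assay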
# Description: SANGER: Inhibition of human A101D cell growth in a cell viability assay.
# A2058 = test system: A2058;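 note: reduction of A2058 cell growth, read out with a viability assay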
# Description: SANGER: Inhibition of human A2058 cell growth in a cell viability assay.
# A2780 = test system: A2780;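 note: growth inhibition of A2780 cells, read out with a cell viability assay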
# Description: SANGER: Inhibition of human A2780 cell growth in a cell viability assay.
# ALL-PO = test system: ALL-PO
# Description: SANGER: Inhibition of human ALL-PO cell growth in a cell viability assay.
# AM-38 = test system: AM-38
# Description: SANGER: Inhibition of human AM-38 cell growth in a cell viability assay.
# BE-13 = test system: BE-13
# Description: SANGER: Inhibition of human BE-13 cell growth in a cell viability assay.
# BT-474 = test system: BT-474
# Description: SANGER: Inhibition of human BT-474 cell growth in a cell viability assay.
# Becker = test system: Becker
# Description: SANGER: Inhibition of human Becker cell growth in a cell viability assay.
# TE-10 = test system: TE-10
# Description: SANGER: Inhibition of human TE-10 cell growth in a cell viability assay.
# UACC-257 = test system: UACC-257
# Description: SANGER: Inhibition of human UACC-257 cell growth in a cell viability assay.
# VA-ES-BJ = test system: VA-ES-BJ
# Description: SANGER: Inhibition of human VA-ES-BJ cell growth in a cell viability assay.
# no-11 = test system: no-11
# Description: SANGER: Inhibition of human no-11 cell growth in a cell viability assay.
# COLO-320-HSR = test system: COLO-320-HSR
# Description: SANGER: Inhibition of human COLO-320-HSR cell growth in a cell viability assay.
compound,measurement,setting,value
C/C=C(/C)C(=O)O[C@H]1C(C)=C2[C@H]([C@@H]1OC(=O)CCCCCCC)[C@@](C)(OC(C)=O)C[C@H](OC(=O)CCC)[C@@]1(O)[C@H]2OC(=O)[C@@]1(C)O [THAPSIGARGIN],IC50,COLO-800,0.0513 µM
same,IC50,COR-L23,0.000749 µM
same,IC50,CP66-MEL,0.0036 µM
same,IC50,D-263MG,0.0372 µM
same,IC50,DU-4475,0.00597 µM
same,IC50,EM-2,0.0554 µM
same,IC50,ES4,< 0.002 µM
same,IC50,ES7,0.0211 µM
same,IC50,EW-11,0.0548 µM
same,IC50,EW-18,0.00211 µM
same,IC50,GI-ME-N,0.0182 µM
same,IC50,GOTO,0.0505 µM
same,IC50,GT3TKB,0.0122 µM
same,IC50,HL-60,> 0.512 µM
same,IC50,HT,0.0057 µM
same,IC50,IST-MEL1,0.000788 µM
same,IC50,IST-MES1,0.138 µM
same,IC50,K562,0.305 µM
same,IC50,KE-37,0.00753 µM
same,IC50,KM-H2,< 0.002 µM
same,IC50,KNS-42,0.0169 µM
same,IC50,KNS-81-FD,> 0.512 µM
same,IC50,KYSE-410,< 0.002 µM
same,IC50,L-363,0.000833 µM
same,IC50,L-540,0.0752 µM
same,IC50,LB2241-RCC,0.066 µM
same,IC50,LB373-MEL-D,0.0291 µM
same,IC50,LS-123,0.00623 µM
same,IC50,MEG-01,0.0108 µM
same,IC50,ML-2,0.0539 µM
same,IC50,MMAC-SF,0.0283 µM
same,IC50,MN-60,0.0692 µM
same,IC50,NB10,0.0632 µM
same,IC50,NB5,0.0666 µM
same,IC50,NCI-H1299,0.000879 µM
same,IC50,NCI-H1650,0.147 µM
same,IC50,NCI-H2170,0.0144 µM
same,IC50,NCI-H322M,> 0.512 µM
same,IC50,NCI-H446,0.0354 µM
same,IC50,SNU-5,0.0914 µM
same,IC50,NKM-1,0.00612 µM
same,IC50,NTERA-2-cl-D1,< 0.002 µM
same,IC50,OVCAR-5,< 0.002 µM
same,IC50,P12-Ichikawa,0.0245 µM
same,IC50,PSN1,< 0.002 µM
same,IC50,RMG-I,0.0133 µM
same,IC50,RXF 393,> 0.512 µM
same,IC50,SF-268,0.00226 µM
same,IC50,SF-539,0.00194 µM
same,IC50,SH-4,0.0178 µM
same,IC50,SJSA-1,0.003 µM
same,IC50,SK-MEL-2,< 0.002 µM
same,IC50,SK-OV-3,0.00264 µM
same,IC50,A101D,0.00482 µM
same,IC50,A2058,0.00269 µM
same,IC50,A2780,< 0.002 µM
same,IC50,ALL-PO,0.0163 µM
same,IC50,AM-38,0.0148 µM
same,IC50,BE-13,0.00735 µM
same,IC50,BT-474,0.21 µM
same,IC50,Becker,0.135 µM
same,IC50,TE-10,0.00157 µM
same,IC50,UACC-257,0.115 µM
same,IC50,VA-ES-BJ,0.0182 µM
same,IC50,no-11,0.0589 µM
same,IC50,COLO-320-HSR,0.048 µM
CO[C@@]12[C@H](COC(N)=O)C3=C(C(=O)C(C)=C(N)C3=O)N1C[C@@H]1N[C@@H]12 [MITOMYCIN],IC50,COLO-800,0.0787 µM
same,IC50,COR-L23,0.241 µM
same,IC50,CP66-MEL,0.645 µM
same,IC50,D-263MG,0.54 µM
same,IC50,DU-4475,0.0475 µM
same,IC50,EM-2,1.03 µM
same,IC50,ES4,< 0.0625 µM
same,IC50,ES7,< 0.0625 µM
same,IC50,EW-11,0.513 µM
same,IC50,EW-18,3.94 µM
same,IC50,GI-ME-N,1.39 µM
same,IC50,GOTO,0.554 µM
same,IC50,GT3TKB,0.318 µM
same,IC50,HL-60,0.106 µM
same,IC50,HT,1.54 µM
same,IC50,IST-MEL1,< 0.0625 µM
same,IC50,IST-MES1,4.15 µM
same,IC50,K562,1.98 µM
same,IC50,KE-37,< 0.0625 µM
same,IC50,KM-H2,0.13 µM
same,IC50,KNS-42,1.09 µM
same,IC50,KNS-81-FD,1.59 µM
same,IC50,KYSE-410,0.584 µM
same,IC50,L-363,0.434 µM
same,IC50,L-540,0.0951 µM
same,IC50,LB2241-RCC,< 0.0625 µM
same,IC50,LB373-MEL-D,0.43 µM
same,IC50,LS-123,1.72 µM
same,IC50,MEG-01,0.683 µM
same,IC50,ML-2,< 0.0625 µM
same,IC50,MMAC-SF,1.01 µM
same,IC50,MN-60,1.26 µM
same,IC50,NB10,0.0817 µM
same,IC50,NB5,0.358 µM
same,IC50,NCI-H1299,0.218 µM
same,IC50,NCI-H1650,0.283 µM
same,IC50,NCI-H2170,< 0.0625 µM
same,IC50,NCI-H322M,1.8 µM
same,IC50,NCI-H446,12.4 µM
same,IC50,SNU-5,0.141 µM
same,IC50,NKM-1,< 0.0625 µM
same,IC50,NTERA-2-cl-D1,< 0.0625 µM
same,IC50,OVCAR-5,0.487 µM
same,IC50,P12-Ichikawa,< 0.0625 µM
same,IC50,PSN1,< 0.0625 µM
same,IC50,RMG-I,3.46 µM
same,IC50,RXF 393,4.39 µM
same,IC50,SF-268,0.171 µM
same,IC50,SF-539,0.127 µM
same,IC50,SH-4,0.387 µM
same,IC50,SJSA-1,0.132 µM
same,IC50,SK-MEL-2,3.97 µM
same,IC50,SK-OV-3,0.143 µM
same,IC50,A101D,0.257 µM
same,IC50,A2058,0.115 µM
same,IC50,A2780,0.107 µM
same,IC50,ALL-PO,0.031 µM
same,IC50,AM-38,0.221 µM
same,IC50,BE-13,< 0.0625 µM
same,IC50,BT-474,2.62 µM
same,IC50,Becker,0.862 µM
same,IC50,TE-10,0.0726 µM
same,IC50,UACC-257,1.57 µM
same,IC50,VA-ES-BJ,0.0522 µM
same,IC50,no-11,7.74 µM
same,IC50,COLO-320-HSR,1.08 µM
